{
  "source": "patent US8394785B2",
  "about": "“Methods for the treatment and amelioration of urticaria” (Jado Technologies GmbH, priority 2005, dated 2013)",
  "key": {"[1]": {"test_system": "C57 mouse mast cell line transfected with the alpha chain of the human high affinity IgE receptor", "test": "Histamine release assay, anti-human-IgE induced, C57 cells", "type": "cell-based", "details": "anti-human-IgE stimulation; 60 min pre-incubation", "procedure": "Stock solution of miltefosine (5 mM) was prepared in DMSO and stored at −20° C. For preparation of the working concentration (2 mM), the stock solution was diluted with PAG-CM (PAG-CM=PIPES Albumin Glucose with Calcium und Magnesium). All other dilutions of miltefosine were prepared with 40% DMSO in PAG-CM buffer. The quantification of histamine levels was achieved using an automated histamine-analyser system (Firm Borgwelt Technik). The wavelength of the excitation was 355-360 nm and the emission wavelength of fluorescence measurement was 450-460 nm. The intensity of fluorescence was directly proportional to the concentration of histamine in the samples. The amount of released histamine was calculated according to the following formula: net histamine release=(release−blank)×(100/complete). “Release”, in this context, was defined as the supernatant of stimulated cells, e.g. by anti-IgE, whereas supernatants of non stimulated cells, i.e. spontaneous release, was termed “blank”. “Complete” stands for the total histamine content of mast cells (after lysing with perchloric acid). The histamine release assays were performed in the PAG-CM buffer system. The numbers of mast cells or basophils in each sample used for histamine release assays was approximately 1×10^4 cells. For stimulation, cells were exposed to anti-IgE, Substance P, Ca-ionophore, or C5a. […]"}, "[2]": {"test_system": "primary human mast cells (human skin)", "test": "Histamine release assay, anti-IgE induced, primary human mast cells", "type": "cell-based", "details": "Mast cell, maximal effect at 25 μM, not dependent on pre-incubation time, read-out: maximal inhibitory effect on IgE-induced histamine release", "procedure": "Tissue mast cells were isolated from human skin obtained during cosmetic surgery. Use of human skin was conducted according to the Declaration of Helsinki Principles and was approved by the Institutional Review Board of the Charité—Universitätsmedizin Berlin. For isolation of mast cells, the epidermis was enzymatically detached by an overnight incubation at 4° C. with dispase at a concentration of 1 mg/ml. The remaining dermis was dispersed by incubation with a mix of collagenase I and hyaluronidase for 1 h at 37° C. Dispersion was repeated three times, and the collected cells were washed. […] The final mast cell purity was >90% as measured by Toluidin blue staining. The viability of mast cells was >95% as assessed by Trypan blue staining (Grützkau et al 2000, Artuc et al 2002). The quantification of histamine levels was achieved using an automated histamine-analyser system (Firm Borgwelt Technik). The wavelength of the excitation was 355-360 nm and the emission wavelength of fluorescence measurement was 450-460 nm. The intensity of fluorescence was directly proportional to the concentration of histamine in the samples. The amount of released histamine was calculated according to the following formula: net histamine release=(release−blank)×(100/complete). […]"}},
  "data": [
    {"smiles": "CCCCCCCCCCCCCCCCOP(=O)([O-])OCC[N+](C)(C)C", "note": "[Compound 3, 1-hexadecylphosphoryl-choline]", "values": [
      {"measurement": "maximal inhibition of histamine release", "setting": "[1]", "value": 40, "unit": "%"},
      {"measurement": "inhibition at 25 µM", "setting": "[2]", "value": 35, "unit": "%"}
    ]}
  ]
}
